Assay results from patent US7122524B2, “Tripeptides and tripeptide derivatives for the treatment of postlesional disease of the nervous system” (Neurotell AG, priority 2002, dated 2006).
In brackets after ≈: the same amount, converted by molar mass. Counter-ions that a name gives are not always drawn. Like-named read-outs stand apart in the source and are kept apart here. Residues, ends and D or L forms follow the SMILES beside them.

Columns and labels:
[1] = literature value; cited from earlier work
cholinergic nerve ends = experiment: Sprouting assay (dendrite length after septum lesion); format: in vivo, rat; conditions: rats, septum of hippocampus destroyed; 20 mg/per kg bodyweight per day over at least 15 days
Description: The sprouting of nerve cells is determined by the length of the dendrites. According to the present invention, the influence of the substances used according to the present invention on the sprouting is studied in an in vivo assay.
The septum of the hippocampus of 10 rats was destroyed (see Hagg et al; Exp. Neurol., 101, 303–312). 21 days after the impairment of the hippocampus was unambiguous, as confirmed by a behavioural test, the rats were divided into two groups of 5 rats each. 20 mg/per kg bodyweight per day of the substance used according to the present invention (GFPNH2) was administered to the test group of 5 rats over at least 15 days.
After administration, the animals were killed, and the cholinergic nerve ends were observed by a CAT (choline-acetyl-transferase) immunofluorescence assay under a fluorescence microscope. The length of the dendrites was measured thereby.

[2] = Metabolic stability in rat hepatocytes; format: in vitro ADME; conditions: male, Wistar, 10^6 cells/ml, analysed during 24 h, read-out: T½ (converted)
From the text: Hepatocytes from adult male Wistar rats (IFFA Credo, L'Arbresle, France) were isolated by an in situ liver perfusion using collagenase (purchased from Sigma (St. Louis, Mo., U.S.A), according to a procedure described by Seglen (Preparation of isolated rat liver cell, Methods Cell Biol. 13, 29–83, 1976) and modified by Williams et al. (Rat hepatocyte primary culture. III. Improved dissociation and attachment techniques and the enhancement of survival by culture medium, in vitro 13: 809–817, 1977). After estimation of cell viability by the peripheral refractoriness of intact cells in phase contrast microscopy and the trypan blue test, freshly isolated hepatocytes were washed in basal William's medium E (WME) supplemented with 10% (v/v) fetal calf serum, 70 μM cortisol, 2 mM L-glutamine, 10 mM HEPES buffer, and 4 mM NaOH. They were then plated at a density of 0,5×10^6 cells per 50 mm plastic cell culture dishes in the medium described previously for cell attachment for 6 hours at 37° C. Subsequently, hepatocytes were washed three times in serum- and cholesterol-free medium (SF-WME) containing 4 g/l bovine albumin fraction V (Sigma) as transporter for 7.8 μM of a mixture of free fatty acids (Cheesebeuf M and Padieu P, expression of major liver metabolic function in long-term serum-free rat liver epithelial cell lines. In vitro 20: 780–795, 1984), and then were transferred to the SF-WME supplemented with the various tripeptides of formula (I). For each group of experiments, hepatocytes from three or four livers were used.
Significances are calculated using Student's t-test. Values are expressed as mean±SD.
• Method: (Hepatocytes in suspension) • Plasma sample: Precipitation with trichloracetic acid. • Centrifugation and aliquot of supernatant to HPLC. • […] column: Nucleosil C18 (250×4,6 mm). • Buffer TEAP 0,1%/CH3CN, 1 ml/min • Readings at 210 nm. […]
Each substance of each concentration will be analysed 10 times during 24 h (1 h, 2 h, 4 h, 6 h, 8 h, 10 h, 12 h, 16 h, 20 h, 24 h).

[3] = freshly isolated rat hepatocytes (in suspension)

## O=c1ccc2ccccc2o1 [Coumarin]
[1]
  flux rate published by Kansy et al.: 66%

## NCC(=O)N[C@@H](Cc1ccccc1)C(=O)N1CCC[C@H]1C(N)=O [HCl-Gly-Phe-ProNH2, glycyl-L-phenylalanyl-L-prolineamide] (H-Gly-Phe-Pro-NH2)
PAMPA
  predicted absorption after peroral application (PAMPA classification): weakly absorbed
Cholinergic nerve ends
  increase of the dendrite length: 8 to 10 μm

## C[C@]12CCC(=O)C=C1CC[C@@H]1[C@@H]2[C@@H](O)C[C@@]2(C)[C@H]1CC[C@]2(O)C(=O)CO [Hydrocortisone]
[1]
  flux rate published by Kansy et al.: 52%

## CC[C@H](C)[C@H](NC(=O)CN(CC)CC)C(=O)N1CCC[C@H]1C(N)=O [N,N-Diethyl-Gly-Ile-ProNH2]
PAMPA
  predicted absorption after peroral application (PAMPA classification): medium to highly absorbed
[2]; freshly isolated rat hepatocytes
  half-life: 2.8 h

## CC[C@H](C)[C@H](NC(=O)[C@H]([C@@H](C)CC)N(CC)CC)C(=O)N1CCC[C@H]1C(N)=O [N,N-Diethyl-Ile-Ile-ProNH2, N,N-diethyl-isoleucyl-isoleucyl-prolineamide]
PAMPA
  predicted absorption after peroral application (PAMPA classification): medium to highly absorbed
[2]; [3]
  half-life: 3.4 h
physchem
  solubility: 1000 µg/mL (≈ 2520 µM)

## CCNC(=O)[C@@H]1CCCN1C(=O)[C@H](Cc1ccccc1)NC(=O)[C@H]([C@@H](C)CC)N(CC)CC [N,N-Diethyl-Ile-Phe-ProNHEt, N,N-diethyl-isoleucyl-phenylalanyl-L-proline ethylamide]
PAMPA
  predicted absorption after peroral application (PAMPA classification): medium to highly absorbed
[2]; [3]
  half-life: 4.5 h
physchem
  solubility: 1000 µg/mL (≈ 2180 µM)

## CC[C@H](C)[C@H](NC(C)C)C(=O)N[C@H](C(=O)N1CCC[C@H]1C(N)=O)[C@@H](C)CC [N-Isopropyl-Ile-Ile-ProNH2]
PAMPA
  predicted absorption after peroral application (PAMPA classification): medium to highly absorbed

## thyreoliberin [TRH, reference compound]
Classification by flux rate
  predicted absorption after peroral application (PAMPA classification): weakly absorbed
